Tested on: NCI-H1618 multicellular tumor spheroid viability
Assay: Anticancer human tumor NCI-H1618 cell line growth inhibition;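 note: spheroids exposed to agents for 7 days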
Settings: for IC50: curve of first compound; for viability, T/C: stronger effect = lower value
Excerpt: Multicellular complex tumor spheroid response to DNA repair inhibitors in combination with DNA-damaging drugs
This study explores the anticancer activities of DNA-damaging drugs and inhibitors of DNA damage repair, both as single agents and in combinations. Complex tumor spheroids comprised of malignant cells, endothelial cells and mesenchymal stem cells served as an in vitro model for human solid tumors. This model system incorporates physiologically relevant features and patient-derived or established malignant cell lines with clinically relevant genetic alterations from many tumor types. Twenty-six patient-derived or established malignant cell lines were evaluated representing sarcoma, melanoma, small cell lung cancer (SCLC), non-small cell lung cancer (NSCLC), as well as bladder, ovarian and pancreatic cancers. The concentration ranges selected for each drug and investigational agent were based upon clinically achievable concentrations if the clinical Cmax of the agent was known.
Compounds. The drugs and compounds olaparib (NSC753686), talazoparib (NSC767125), berzosertib (NSC777718), elimusertib (NSC800525), nedisertib (NSC802822), VX-984 (NSC792969), AZD-1390 (NSC803789), temozolomide (NSC362856), topotecan (NSC609699), trabectedin (NSC813783), staurosporine (NSC755774), and gemcitabine (NSC613327) were obtained from the National Cancer Institute (NCI) Developmental Therapeutics Program Chemical Repository. The FDA-approved anticancer drug set is available from the Developmental Therapeutics Program at https://dtp.cancer.gov/organization/dscb/obtaining/available_plates.htm. […] The stock solutions were prepared in dimethyl sulfoxide (DMSO, Sigma-Aldrich, St. Louis, MO, cat. D2650) at 400-fold the tested concentration and stored at -70 degrees C. Prior to their use, the stock solutions were diluted in fresh medium and the final DMSO concentration in the assay was 0.25% (v/v). All drugs and investigational agents were tested over a range starting from a high concentration at or near the clinical Cmax and decreasing in half-log increments. If the clinical Cmax for an agent had not been determined, the highest concentration tested was 10 microM.
Cell Lines. The patient-derived cancer cell (PDC) lines: 156681-154-R-J1-PDC, 283228-195-R-J1-PDC, 287954-098-R-J1-PDC, 292921-168-R-J2-PDC, 349418-098-R-PDC, 425362-245-T-J1-PDC, 556581-035-R-J1-PDC, and BL0293-F563-PDC were received from the NCI Patient-Derived Models Repository (PDMR, https://pdmr.cancer.gov). The established cell lines HS-SY-2 (RRID:CVCL_8719), MPNST, and SYO-1 (RRID:CVCL_7146) were obtained from the Sloan Kettering Institute. The alveolar soft parts sarcoma cell line ASPS-1 (RRID:CVCL_S738) was established at the NCI and grown from internal seed stocks. The following established cell lines were purchased from the American Type Culture Collection (ATCC, Manassas, VA): G-401 (ATCC, cat. CRL-1441, RRID:CVCL_0270), SW982 (ATCC, cat. HTB-93, RRID:CVCL_1734), VA-ES-BJ (ATCC, cat. CRL-2138, RRID:CVCL_1785), NCI-H719 (ATCC, cat. CRL-5837, RRID:CVCL_1582), NCI-H196 (ATCC, cat. CRL-5823, RRID:CVCL_1509), NCI-H841 (ATCC, cat. CRL-5845, RRID:CVCL_1595), NCI-H1618 (ATCC, cat. CRL-5879, RRID:CVCL_1480), NCI-H1876 (ATCC, cat. CRL-5902, RRID:CVCL_1503), DMS 114 (ATCC, cat. CRL-2066; RRID:CVCL_1174), NCI-H211 (ATCC, cat. CRL-5824; RRID:CVCL_1529), and SW 1271 (ATCC, cat. CRL-2177, RRID:CVCL_1716). The small cell lung cancer cell line COR-L88 was purchased from Sigma-Aldrich (cat. 92031917-1VL, RRID:CVCL_1141). The non-small cell lung cancer cell lines NCI-H226 (RRID:CVCL_1544) and NCI-H322M (RRID:CVCL_1557) were established at the NCI and grown from internal seed stocks. Pooled donor human umbilical vein endothelial cells (HUVEC, Lonza, cat. CC-2519) and human mesenchymal stem cells (hMSC, Lonza, cat. PT-2501) were purchased from Lonza (Walkersville, MD).
Cell Culture. All cells were maintained in an incubator at 37 degrees C and 5% CO2 with 95% humidity. […]

[1] = second compound 0.003 µM, first compound 0.00949 µM
[2] = second compound 0.003 µM, first compound 0.03 µM
[3] = second compound 0.003 µM, first compound 0.0949 µM
[4] = second compound 0.003 µM, first compound 0.3 µM
[5] = second compound 0.003 µM, first compound 0.949 µM
[6] = second compound 0.003 µM, first compound 3 µM
[7] = second compound 0.00949 µM, first compound 0.00949 µM
[8] = second compound 0.00949 µM, first compound 0.03 µM
[9] = second compound 0.00949 µM, first compound 0.0949 µM
[10] = second compound 0.00949 µM, first compound 0.3 µM
[11] = second compound 0.00949 µM, first compound 0.949 µM
[12] = second compound 0.00949 µM, first compound 3 µM
[13] = second compound 0.03 µM, first compound 0.00949 µM
[14] = second compound 0.03 µM, first compound 0.03 µM
[15] = second compound 0.03 µM, first compound 0.0949 µM
[16] = second compound 0.03 µM, first compound 0.3 µM
[17] = second compound 0.03 µM, first compound 0.949 µM
[18] = second compound 0.03 µM, first compound 3 µM
[19] = second compound 0.0949 µM, first compound 0.00949 µM
[20] = second compound 0.0949 µM, first compound 0.03 µM
[21] = second compound 0.0949 µM, first compound 0.0949 µM
[22] = second compound 0.0949 µM, first compound 0.3 µM
[23] = second compound 0.0949 µM, first compound 0.949 µM
[24] = second compound 0.0949 µM, first compound 3 µM
[25] = second compound 0.3 µM, first compound 0.00949 µM
[26] = second compound 0.3 µM, first compound 0.03 µM
[27] = second compound 0.3 µM, first compound 0.0949 µM
[28] = second compound 0.3 µM, first compound 0.3 µM
[29] = second compound 0.3 µM, first compound 0.949 µM
[30] = second compound 0.3 µM, first compound 3 µM

Row | Structure (SMILES) | IC50 (second compound 0.003 µM) [nM] | IC50 (second compound 0.00949 µM) [nM] | IC50 (second compound 0.03 µM) [nM] | IC50 (second compound 0.0949 µM) [nM] | IC50 (second compound 0.3 µM) [nM] | viability, T/C [3] [%] | viability, T/C [4] [%] | viability, T/C [5] [%] | viability, T/C [6] [%] | viability, T/C [9] [%] | viability, T/C [10] [%] | viability, T/C [11] [%] | viability, T/C [12] [%] | viability, T/C [15] [%] | viability, T/C [16] [%] | viability, T/C [17] [%] | viability, T/C [18] [%] | viability, T/C [21] [%] | viability, T/C [22] [%] | viability, T/C [23] [%] | further results
1 | CNCc1ccc(-c2cc(-c3nc(-c4ccc(S(=O)(=O)C(C)C)cc4)cnc3N)on2)cc1 + CC[C@@]1(O)C(=O)OCc2c1cc1n(c2=O)Cc2cc3c(CN(C)C)c(O)ccc3nc2-1 | 187 | < 9.49 | < 9.49 | < 9.49 | < 9.49 | 61.7 | 44.8 | 1.59 | 0.23 | 34.5 | 1.73 | 0.75 | 0.62 | 1.54 | 1.41 | 0.72 | 0.23 | 1.35 | 1.36 | 0.81 | viability, T/C [1]: 95.1%; viability, T/C [2]: 94%; viability, T/C [7]: 20.6%; viability, T/C [8]: 77.9%; viability, T/C [13]: 1.33%; viability, T/C [14]: 15.5%; viability, T/C [19]: 1.38%; viability, T/C [20]: 14%; viability, T/C [24]: 0.45%; viability, T/C [25]: 1.25%; viability, T/C [26]: 1.26%; viability, T/C [27]: 1.42%; viability, T/C [28]: 1.51%; viability, T/C [29]: 17.5%; viability, T/C [30]: 0.43%
2 | Cc1sc2c(c1C)C(c1ccc(Cl)cc1)=NC(CC(=O)Nc1ccc(O)cc1)c1nnc(C)n1-2 (stereo not given) + CC[C@@]1(O)C(=O)OCc2c1cc1n(c2=O)Cc2cc3c(CN(C)C)c(O)ccc3nc2-1 | 453 | 11 | < 9.49 | < 9.49 | < 9.49 | 89.1 | 61.3 | 27.2 | 1.67 | 29.5 | 2.24 | 0.92 | 0.93 | 1.42 | 1.1 | 0.9 | 0.76 | 1.55 | 0.99 | 0.71 | viability, T/C [1]: 96.6%; viability, T/C [2]: 85.2%; viability, T/C [7]: 55.5%; viability, T/C [8]: 21.2%; viability, T/C [13]: 1.53%; viability, T/C [14]: 17%; viability, T/C [19]: 1.43%; viability, T/C [20]: 1.5%; viability, T/C [24]: 15.8%; viability, T/C [25]: 1.23%; viability, T/C [26]: 1.1%; viability, T/C [27]: 0.98%; viability, T/C [28]: 0.97%; viability, T/C [29]: 0.73%; viability, T/C [30]: 0.63%
3 | Cn1ncnc1[C@H]1c2n[nH]c(=O)c3cc(F)cc(c23)N[C@@H]1c1ccc(F)cc1 + CC[C@@]1(O)C(=O)OCc2c1cc1n(c2=O)Cc2cc3c(CN(C)C)c(O)ccc3nc2-1 | < 9.49 | < 9.49 | < 9.49 | < 9.49 | < 9.49 | 1.47 | 1.41 | 1.48 | 2.21 | 1.8 | 1.98 | 3.83 | 1.52 | 1.38 | 1.56 | 1.83 | 1.87 | 1.43 | 1.39 | 1.38 | viability, T/C [1]: 27.3%; viability, T/C [2]: 6.33%; viability, T/C [7]: 1.59%; viability, T/C [8]: 2.38%; viability, T/C [13]: 1.39%; viability, T/C [14]: 3.65%; viability, T/C [19]: 1.47%; viability, T/C [20]: 1.59%; viability, T/C [24]: 1.57%; viability, T/C [25]: 1.23%; viability, T/C [26]: 1.22%; viability, T/C [27]: 1.27%; viability, T/C [28]: 1.22%; viability, T/C [29]: 1.24%; viability, T/C [30]: 1.3%
4 | O=C(c1cc(Cc2n[nH]c(=O)c3ccccc23)ccc1F)N1CCN(C(=O)C2CC2)CC1 + CC[C@@]1(O)C(=O)OCc2c1cc1n(c2=O)Cc2cc3c(CN(C)C)c(O)ccc3nc2-1 | 1250 | < 94.9 | < 94.9 | < 94.9 | < 94.9 | 89 | 84 | 61.2 | 15 | 2.05 | 2.74 | 1.49 | 2.37 | 2.9 | 1.36 | 1.85 | 1.67 | 13.1 | 1.67 | 2.53 | viability, T/C (second compound 0.003 µM, first compound 9.49 µM): 3.53%; viability, T/C (second compound 0.003 µM, first compound 30 µM): 3.79%; viability, T/C (second compound 0.00949 µM, first compound 9.49 µM): 9.35%; viability, T/C (second compound 0.00949 µM, first compound 30 µM): 2.81%; viability, T/C (second compound 0.03 µM, first compound 9.49 µM): 2.73%; viability, T/C (second compound 0.03 µM, first compound 30 µM): 2.96%; viability, T/C [24]: 1.83%; viability, T/C (second compound 0.0949 µM, first compound 9.49 µM): 2.3%; viability, T/C (second compound 0.0949 µM, first compound 30 µM): 2.69%; viability, T/C [27]: 1.51%; viability, T/C [28]: 1.22%; viability, T/C [29]: 1.9%; viability, T/C [30]: 1.37%; viability, T/C (second compound 0.3 µM, first compound 9.49 µM): 1.77%; viability, T/C (second compound 0.3 µM, first compound 30 µM): 3.42%
